Measurements as given in patent US20260364030A1, “NOVEL SELECTIVE INHIBITORS OF LYSYL OXIDASES” (Syntara Limited, priority 2022, published 2026).
pIC50: −log10 of the molar value.

How the values were obtained:
[1] = biological target: T1, LOXL2 (Homo sapiens, UniProt Q9Y4K0); assay: LOXL2 inhibition, Amplex Red oxidation assay; type: biochemical; conditions: 2 h incubation with enzyme at 37 °C; read-out: Human LOXL2 Activity IC50
T1 sequence (Q9Y4K0 26-774): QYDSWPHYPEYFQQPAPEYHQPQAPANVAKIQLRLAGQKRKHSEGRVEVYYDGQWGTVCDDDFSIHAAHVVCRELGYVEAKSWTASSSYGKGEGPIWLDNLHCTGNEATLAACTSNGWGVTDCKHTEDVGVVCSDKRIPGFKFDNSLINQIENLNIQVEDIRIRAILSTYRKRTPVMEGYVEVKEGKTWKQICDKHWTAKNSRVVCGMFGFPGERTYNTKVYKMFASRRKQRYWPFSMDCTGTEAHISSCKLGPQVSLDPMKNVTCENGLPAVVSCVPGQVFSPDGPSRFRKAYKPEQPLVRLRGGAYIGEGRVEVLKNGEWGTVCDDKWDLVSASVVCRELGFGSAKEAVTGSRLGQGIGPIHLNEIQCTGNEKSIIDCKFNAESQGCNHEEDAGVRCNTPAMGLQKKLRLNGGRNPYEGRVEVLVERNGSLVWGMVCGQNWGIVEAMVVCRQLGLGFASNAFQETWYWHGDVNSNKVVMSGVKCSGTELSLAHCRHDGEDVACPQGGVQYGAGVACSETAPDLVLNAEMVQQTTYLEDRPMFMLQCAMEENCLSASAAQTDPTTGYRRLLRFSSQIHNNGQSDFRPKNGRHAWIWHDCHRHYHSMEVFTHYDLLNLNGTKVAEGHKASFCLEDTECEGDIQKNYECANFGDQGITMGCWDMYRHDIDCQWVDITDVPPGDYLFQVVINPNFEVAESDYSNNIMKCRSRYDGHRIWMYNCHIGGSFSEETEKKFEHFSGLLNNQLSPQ
Procedure: (§1) LOX and LOXL protein family members can be acquired as recombinant active proteins from commercial sources, or extracted from animal tissues like bovine aorta, tendons, pig skin; or prepared from cell cultures. The inhibitory effects of the compounds of the present invention were tested against the given LOX or LOXL preparation using a method based on the detection of hydrogen peroxide with an Amplex Red oxidation assay [Zhou et al, 1997]. The assay was developed using either 384 or 96 well format. Briefly, in a standard black, clear bottom 384 well plate assay 25 µL of a dilution of any of the isoenzymes and orthologues in 1.2 M urea, 50 mM sodium borate buffer (pH 8.2) were added into each well in the presence of […] and 0.5 mM pargyline (to inhibit SSAO and MAO-B and MAO-A, respectively; not necessary if the enzyme is from a recombinant or purified form). […] of a reaction mixture containing twice the KM concentration of putrescine (Sigma Aldrich, e.g. 20 mM for LOX and LOXL1 or 10 mM for LOXL2 and 4 mM for LOXL3 and LOXL4), 120 µM Amplex Red (Thermo Fisher Scientific) and 1.5 U/mL horseradish peroxidase (Sigma Aldrich) prepared in 1.2 M urea, 50 mM sodium borate buffer (pH 8.2) were then added to the corresponding wells. The above volumes were doubled in the case of 96 wells plate. The fluorescence (RFU) was read every 2.5 min for 30 min at 37 °C, excitation 544 nm and emission 590 (Optima; BMG labtech). The slope/min of the kinetics for each well was calculated using MARS data analysis software (BMG labtech) and this value was used to deduce the IC50 value (Dotmatics). The ability of the inventive compounds to inhibit the amine oxidase activity of LOX and other family members is shown in Table 5.

[2] = biological target: T2, Bovine LOX (Bos taurus, UniProt P33072); assay: LOX inhibition, hydrogen peroxide Amplex Red oxidation assay; type: biochemical; conditions: 2 h incubation with enzyme at 37 °C
T2 sequence (P33072 170-418): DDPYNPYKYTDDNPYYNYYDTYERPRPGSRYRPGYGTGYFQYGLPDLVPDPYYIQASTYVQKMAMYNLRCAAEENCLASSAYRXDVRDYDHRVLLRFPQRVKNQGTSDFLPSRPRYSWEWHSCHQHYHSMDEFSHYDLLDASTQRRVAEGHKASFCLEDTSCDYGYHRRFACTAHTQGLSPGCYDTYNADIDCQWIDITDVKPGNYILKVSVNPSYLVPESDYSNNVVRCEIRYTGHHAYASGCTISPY
Procedure: as §1

| pIC50 [1] | pIC50 [2] | Compound |
| --- | --- | --- |
| > 5.70 | > 5.70 | N#Cc1cccc(S(=O)(=O)C/C(=C/F)CN)c1 [Compound 2, (E)-3-((2-(aminomethyl)-3-fluoroallyl)sulfonyl)benzonitrile] |
| > 5.70 | > 5.30 | Cc1ccccc1S(=O)(=O)C/C(=C/F)CN [Compound 3, (E)-3-fluoro-2-((o-tolylsulfonyl)methyl)prop-2-en-1-amine] |
| > 5.70 | > 5.30 | Cc1ccc(S(=O)(=O)C/C(=C/F)CN)cc1 [Compound 4, (E)-3-fluoro-2-(tosylmethyl)prop-2-en-1-amine] |
| > 5.70 | > 5.70 | NC/C(=C\F)CS(=O)(=O)c1cccc(F)c1 [Compound 5, (E)-3-fluoro-2-(((3-fluorophenyl)sulfonyl)methyl)prop-2-en-1-amine] |
| > 5.30 | > 5.30 | NC/C(=C\F)CS(=O)(=O)c1ccccc1Cl [Compound 6, (E)-2-(((2-chlorophenyl)sulfonyl)methyl)-3-fluoroprop-2-en-1-amine] |
| > 5.70 | > 5.00 | NC/C(=C\F)CS(=O)(=O)c1cccc2cccnc12 [Compound 7, (E)-3-fluoro-2-((quinolin-8-ylsulfonyl)methyl)prop-2-en-1-amine] |
| > 5.70 | > 5.70 | Cc1ccc(S(=O)(=O)C/C(=C/F)CN)cc1Cl [Compound 8, (E)-2-(((3-chloro-4-methylphenyl)sulfonyl)methyl)-3-fluoroprop-2-en-1-amine] |
| > 5.70 | > 5.70 | Cc1ccc(S(=O)(=O)C/C(=C/F)CN)cc1C [Compound 9, (E)-2-(((3,4-dimethylphenyl)sulfonyl)methyl)-3-fluoroprop-2-en-1-amine] |
| > 5.70 | > 5.70 | NC/C(=C\F)CS(=O)(=O)c1cccc(C(F)(F)F)c1 [Compound 10, (E)-3-fluoro-2-(((3-(trifluoromethyl)phenyl)sulfonyl)methyl)prop-2-en-1-amine] |
| > 5.70 | > 5.70 | CC(C)c1cccc(S(=O)(=O)C/C(=C/F)CN)c1 [Compound 11, (E)-3-fluoro-2-(((3-isopropylphenyl)sulfonyl)methyl)prop-2-en-1-amine] |
| > 5.30 | > 5.30 | N#Cc1ccccc1S(=O)(=O)C/C(=C/F)CN [Compound 12, (E)-2-((2-(aminomethyl)-3-fluoroallyl)sulfonyl)benzonitrile] |
| > 5.70 | > 5.70 | NC/C(=C\F)CS(=O)(=O)c1cccc([N+](=O)[O-])c1 [Compound 13, (E)-3-fluoro-2-(((3-nitrophenyl)sulfonyl)methyl)prop-2-en-1-amine] |
| > 5.70 | > 5.70 | NC/C(=C\F)CS(=O)(=O)c1cccc(S(=O)(=O)c2ccccc2)c1 [Compound 14, (E)-3-fluoro-2-(((3-(phenylsulfonyl)phenyl)sulfonyl)methyl)prop-2-en-1-amine] |
| > 5.70 | > 5.70 | NC/C(=C\F)CS(=O)(=O)c1cccc(Br)c1 [Compound 15, (E)-2-(((3-bromophenyl)sulfonyl)methyl)-3-fluoroprop-2-en-1-amine] |
| > 5.70 | > 5.70 | NC/C(=C\F)CS(=O)(=O)c1cccc(-c2nccs2)c1 [Compound 16, (E)-3-fluoro-2-(((3-(thiazol-2-yl)phenyl)sulfonyl)methyl)prop-2-en-1-amine] |
| > 5.70 | > 5.70 | Cc1ncc(-c2cccc(S(=O)(=O)C/C(=C/F)CN)c2)s1 [Compound 17, (E)-3-fluoro-2-(((3-(2-methylthiazol-5-yl)phenyl)sulfonyl)methyl)prop-2-en-1-amine] |

| pIC50 [1] | pIC50 [2] | Compound |
| --- | --- | --- |
| > 5.70 | > 5.70 | Cc1ccn(-c2cccc(S(=O)(=O)C/C(=C/F)CN)c2)n1 [Compound 18, (E)-3-fluoro-2-(((3-(3-methyl-1H-pyrazol-1-yl)phenyl)sulfonyl)methyl)prop-2-en-1-amine] |
| > 5.70 | > 5.70 | NC/C(=C\F)CS(=O)(=O)c1cccc(Cl)c1 [Compound 19, (E)-2-(((3-chlorophenyl)sulfonyl)methyl)-3-fluoroprop-2-en-1-amine] |
| > 5.70 | > 5.70 | Cc1cccc(S(=O)(=O)C/C(=C/F)CN)c1 [Compound 20, (E)-3-fluoro-2-((m-tolylsulfonyl)methyl)prop-2-en-1-amine] |
| > 5.70 | > 5.70 | CS(=O)(=O)c1ccc(S(=O)(=O)C/C(=C/F)CN)cc1 [Compound 21, (E)-3-fluoro-2-(((4-(methylsulfonyl)phenyl)sulfonyl)methyl)prop-2-en-1-amine] |
| > 5.70 | > 5.70 | NC/C(=C\F)CS(=O)(=O)c1ccc2ccccc2c1 [Compound 22, (E)-3-fluoro-2-((naphthalen-2-ylsulfonyl)methyl)prop-2-en-1-amine] |
| > 5.70 | > 5.70 | CS(=O)(=O)c1cccc(S(=O)(=O)C/C(=C/F)CN)c1 [Compound 23, (E)-3-fluoro-2-(((3-(methylsulfonyl)phenyl)sulfonyl)methyl)prop-2-en-1-amine] |
| > 5.70 | > 5.70 | COc1cccc(S(=O)(=O)C/C(=C/F)CN)c1 [Compound 24, (E)-3-fluoro-2-(((3-methoxyphenyl)sulfonyl)methyl)prop-2-en-1-amine] |
| > 5.70 | > 5.70 | NC/C(=C\F)CS(=O)(=O)c1ccc2c(c1)OCCO2 [Compound 25, (E)-2-(((2,3-dihydrobenzo[b][1,4]dioxin-6-yl)sulfonyl)methyl)-3-fluoroprop-2-en-1-amine] |
| > 5.30 | > 5.00 | NC/C(=C\F)CS(=O)(=O)c1cccc(C(=O)O)c1 [Compound 26, (E)-3-((2-(aminomethyl)-3-fluoroallyl)sulfonyl)benzoic acid] |
| > 5.70 | > 5.70 | NC/C(=C\F)CS(=O)(=O)c1cccc(C(N)=O)c1 [Compound 27, (E)-3-((2-(aminomethyl)-3-fluoroallyl)sulfonyl)benzamide] |
| > 5.70 | > 5.30 | N#Cc1ccc(S(=O)(=O)C/C(=C/F)CN)cc1 [Compound 28, (E)-4-((2-(aminomethyl)-3-fluoroallyl)sulfonyl)benzonitrile] |
| > 5.70 | > 5.70 | Cc1ccc(S(=O)(=O)C/C(=C/F)CN)cc1C#N [Compound 29, (E)-5-((2-(aminomethyl)-3-fluoroallyl)sulfonyl)-2-methylbenzonitrile] |
| > 5.30 | > 5.30 | [2H]c1c([2H])c([2H])c(S(=O)(=O)C/C(=C/F)CN)c([2H])c1[2H] [Compound 30, (E)-3-fluoro-2-(((phenyl-d5)sulfonyl)methyl)prop-2-en-1-amine] |
| > 5.00 | > 5.00 | NC/C(=C\F)CS(=O)(=O)c1ccc(C(=O)O)cc1 [Compound 31, (E)-4-((2-(aminomethyl)-3-fluoroallyl)sulfonyl)benzoic acid] |
| > 5.70 | > 5.70 | NC/C(=C\F)CS(=O)(=O)c1cc(Cl)ccc1Cl [Compound 32, (E)-2-(((2,5-dichlorophenyl)sulfonyl)methyl)-3-fluoroprop-2-en-1-amine] |
| – | > 5.30 | NC/C(=C\F)CS(=O)(=O)c1cccc(-n2nccn2)c1 [Compound 34, (E)-2-(((3-(2H-1,2,3-triazol-2-yl)phenyl)sulfonyl)methyl)-3-fluoroprop-2-en-1-amine] |
